# Data: ChEMBL document CHEMBL1201862, “PubChem BioAssay data set” (2004)
# Where “and” joins values, the source holds several entries; their conditions need not be identical. Identical values can stand only once. Calls of active or inactive are those of the source. Rule as the data show it, for most assays here: actives have a measured EC50 and inactives only a lower limit.
# Tests used:
# [1] = system: Streptococcus sp. 'group A'; assay: Streptococcus pyogenes SK(-)GAS viability under kanamycin – luminescence, BacTiterGlo, confirmation, counter-screen for streptokinase expression inhibitor project, dose response (AID 1900); assay type: functional, organism-based
# [2] = biological target: T1, Streptokinase A (Streptococcus pyogenes serotype M1, UniProt P10520); assay: viability-normalized secreted streptokinase activity reduction – plasminogen activation absorbance, OD405, dose response (AID 1914); assay type: functional, Streptococcus pyogenes M1 GAS;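 also: secreted streptokinase activity via plasminogen activation per viability signal from cell pellet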
# T1 sequence (P10520 whole entry): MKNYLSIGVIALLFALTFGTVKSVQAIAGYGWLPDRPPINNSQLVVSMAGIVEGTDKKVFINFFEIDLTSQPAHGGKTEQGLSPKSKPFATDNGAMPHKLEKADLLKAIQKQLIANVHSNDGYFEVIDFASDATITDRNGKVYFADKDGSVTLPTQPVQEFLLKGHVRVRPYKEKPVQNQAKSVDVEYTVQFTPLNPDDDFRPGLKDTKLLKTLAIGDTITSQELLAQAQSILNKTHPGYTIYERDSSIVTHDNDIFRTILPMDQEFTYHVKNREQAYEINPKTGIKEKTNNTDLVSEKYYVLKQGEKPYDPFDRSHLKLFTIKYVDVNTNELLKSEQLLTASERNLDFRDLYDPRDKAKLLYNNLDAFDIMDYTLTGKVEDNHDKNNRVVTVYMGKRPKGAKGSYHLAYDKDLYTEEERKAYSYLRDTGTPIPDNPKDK
# [3] = system: Streptococcus; assay: GAS UMAA2166 growth inhibition – luminescence, BacTiterGlo, counter-screen for streptokinase expression inhibitor project, dose response (AID 1915); assay type: functional, organism-based;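 also: potency for reduction of bacterial viability or growth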
# [4] = Trypanosoma cruzi growth suppression in host cells – NIH3T3 host cells, beta-gal luminescence, confirmation (AID 2044); assay type: functional, cell-based;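 also: intracellular parasites grown in NIH/3T3 mouse fibroblasts as host cells; luminescent beta-galactosidase reporter signal from transgenic T. cruzi replicating inside host cells; inhibitors lower the luminescence signal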
# [5] = NIH3T3 cell viability loss – ATP luminescence, mouse fibroblasts, counter-screen, dose response (AID 2010); assay type: functional, cell-based;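 also: cells exposed to compound for about 90 hours before reading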
# [6] = biological target: T2, Heat shock factor protein 1 (Mus musculus, UniProt P38532); assay: decrease of HSF1-responsive luciferase luminescence – cell-based, NIH3T3, dose retest, confirmation (AID 2382); assay type: functional;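 also: NIH3T3 fibroblasts with HSF1-driven luciferase reporter stressed by proteasome inhibitor MG132; luminescence from HSF1-driven luciferase expression after 8 hours of MG132 stress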
# T2 sequence (P38532 whole entry): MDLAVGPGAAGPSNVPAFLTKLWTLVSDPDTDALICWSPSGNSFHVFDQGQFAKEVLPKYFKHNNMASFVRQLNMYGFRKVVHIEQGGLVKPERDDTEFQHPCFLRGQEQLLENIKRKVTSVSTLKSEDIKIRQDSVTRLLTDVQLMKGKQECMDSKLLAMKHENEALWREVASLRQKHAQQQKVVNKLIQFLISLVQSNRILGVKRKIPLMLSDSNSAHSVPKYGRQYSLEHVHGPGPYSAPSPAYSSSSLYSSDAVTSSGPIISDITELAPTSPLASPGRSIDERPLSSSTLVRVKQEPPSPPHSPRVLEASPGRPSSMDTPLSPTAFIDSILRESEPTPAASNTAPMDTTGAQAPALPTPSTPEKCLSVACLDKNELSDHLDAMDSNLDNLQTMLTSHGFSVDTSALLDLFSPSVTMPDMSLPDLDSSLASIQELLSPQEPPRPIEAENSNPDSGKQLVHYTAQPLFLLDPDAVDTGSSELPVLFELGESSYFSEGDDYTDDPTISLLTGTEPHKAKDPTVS
# [7] = biological target: Cytochrome P450 3A4 (Homo sapiens, UniProt P08684);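 also: CYP3A4 tested as one member of a cytochrome P450 panel screen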
# Cytochrome P450 3A4, sequence (P08684 whole entry): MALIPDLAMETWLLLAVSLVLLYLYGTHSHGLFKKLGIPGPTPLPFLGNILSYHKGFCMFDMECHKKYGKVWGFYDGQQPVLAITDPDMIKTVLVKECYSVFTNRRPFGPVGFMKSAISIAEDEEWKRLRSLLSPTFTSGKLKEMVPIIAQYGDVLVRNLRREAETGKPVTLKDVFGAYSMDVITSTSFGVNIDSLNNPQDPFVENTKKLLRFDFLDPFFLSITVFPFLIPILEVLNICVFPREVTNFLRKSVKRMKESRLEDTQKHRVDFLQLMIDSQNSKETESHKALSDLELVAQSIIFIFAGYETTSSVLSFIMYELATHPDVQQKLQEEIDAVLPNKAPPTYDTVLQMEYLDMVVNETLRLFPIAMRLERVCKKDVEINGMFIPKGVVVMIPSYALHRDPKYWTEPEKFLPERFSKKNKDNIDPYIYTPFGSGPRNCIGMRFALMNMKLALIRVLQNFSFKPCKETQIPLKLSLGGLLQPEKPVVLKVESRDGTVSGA
smiles,measurement,setting,value
CN(c1ccccc1)c1nc(N2CCCC2)nc(-n2ccnc2)n1,EC50,[1],13.1 µM (active)
same,EC50,[2],75.6 µM (active)
same,EC50,[3],> 50 µM (not active)
CCOc1ccc(CN2CCCC(CNC(=O)c3ccc(F)cc3)C2)cc1CO (stereo not drawn),EC50,[4],771 nM (active)
same,EC50,[5],> 30 µM (not active)
N#CC1=C(N)SC(N)=C(C#N)C1c1c(Cl)cccc1Cl,EC50,[1],6.67 µM (active)
same,EC50,[2],93.5 µM (active)
same,EC50,[3],> 150 µM (not active)
O=C(N/N=C/c1cc([N+](=O)[O-])ccc1O)c1ccncc1,EC50,[6],0.66 µM (active)
CCOC(=O)c1c(-c2ccccc2)c2cc(OC)ccc2n1CCCN(C)C,EC50,[4],653 nM (active)
same,EC50,[5],16.3 µM (active)
CCCCC(=O)Nc1cccc(NC(=O)c2cccc(Br)c2)c1,EC50,[6],> 195 µM (not active)
Cc1[nH]c2ccccc2c1/C=N/Nc1ccccc1[N+](=O)[O-],EC50,[4],2300 nM (active)
same,EC50,[5],> 60 µM (not active)
Cc1cccc(CN2CCCC(C(=O)N3CCc4ccccc4C3)C2)c1 (stereo not drawn),EC50,[4],214 nM (active)
same,EC50,[5],> 60 µM (not active)
CN1CCC(OC(=O)c2cccc(F)c2)CC1,EC50,[4],256 nM (active)
same,EC50,[5],> 30 µM (not active)
Cc1ccccc1C(=O)OC1CCN(C)CC1,EC50,[4],115 nM (active)
same,EC50,[5],42.4 µM (active)
Cc1cc(C(C)(C)C)ccc1OCCOCCN1CCCC1,EC50,[4],913 nM (active)
same,EC50,[5],> 60 µM (inconclusive)
O=C(c1c(F)cccc1F)N1CCN(c2ccccc2F)CC1,EC50,[6],> 195 µM (not active)
CN1CCN(c2ncc3nc(-c4cc(F)cc(F)c4)c(=O)n(C4CC4)c3n2)CC1,AC50,[7],39.8 µM (inconclusive)
Cc1noc(C)c1-c1nccc(N(C)C)n1,AC50,[7],31.6 µM (inconclusive)
C=CCn1c(O)c(N=NC(=S)Nc2ccc(OC)c(Cl)c2)c2ccccc21,EC50,[4],586 nM (active)
same,EC50,[5],3.88 µM (active)
Cc1ccccc1SCC(=O)Nc1cc(C(F)(F)F)ccc1N1CCOCC1,EC50,[4],3940 nM (active)
same,EC50,[5],> 60 µM (not active)
CCC(C)n1c(SC(C)C#N)nc2ccccc2c1=O (stereo not drawn),EC50,[6],> 195 µM (not active)
O=C(CSc1nnc(NC(=O)c2cccc(Cl)c2)s1)NCC1CCCO1 (stereo not drawn),EC50,[1],> 150 µM (not active)
same,EC50,[2],> 150 µM (not active)
same,EC50,[3],> 150 µM (not active)
COC(=O)C(Cc1cnc(Cl)s1)(C(=O)OC)c1ccc([N+](=O)[O-])cc1[N+](=O)[O-],EC50,[4],1200 nM (active)
same,EC50,[5],> 60 µM (not active)
COCCOC(=O)CC1=NC(=O)CS1,EC50,[6],> 195 µM (not active)
Cc1ccsc1C(=O)OCC(=O)c1cc2ccccc2o1,EC50,[1],> 150 µM (not active)
same,EC50,[2],> 150 µM (not active)
same,EC50,[3],> 150 µM (not active)
COc1cccc(/C=N/NC(=O)c2nnn(-c3nonc3N)c2C(C)C)c1OCc1ccc(F)cc1,EC50,[1],13 µM (active)
same,EC50,[2],62.6 µM (active)
same,EC50,[3],43.1 µM (active)
CCCCCCCCCC(=O)N/N=C(\C)c1cccnc1,EC50,[4],1310 nM (active)
same,EC50,[5],> 60 µM (not active)
O=C(O)c1cc2cc(F)ccc2[nH]1 [5-FLUOROINDOLE-2-CARBOXYLIC ACID],EC50,[6],> 195 µM (not active)
CC(=O)[C@@H]1CC[C@@H]2[C@@H]3CC=C4C[C@H](OS(=O)(=O)O)CC[C@@]4(C)[C@H]3CC[C@]21C,AC50,[7],12.6 µM (inconclusive)
Cc1ccc(-c2nn(-c3ccccc3)cc2CN(C)C(=O)CCC(=O)O)cc1C,EC50,[6],> 195 µM (not active)
CC(/N=C/C1=C(O)OC(C)(C)OC1=O)C(=O)O (stereo not drawn),EC50,[5],> 60 µM (not active)
CC(=O)OC[C@@H]1O[C@H](C/C=N\O[C@@H](C)CN2CCCc3nc(C)c(C)cc32)C=C[C@@H]1OC(C)=O,AC50,[7],3.98 µM (inconclusive)
O=C1[C@H]2[C@H]3[C@H](O)[C@H](O)C/C(=N/OC[C@@H](O)COCc4ccco4)[C@H]3CC[C@@H]2C(=O)N1c1cccc(Oc2ccccc2)c1,AC50,[7],3.16 µM (inconclusive)
Cc1nn(-c2ccccc2)c(N)c1C(O)(CSc1nccn1C)C(F)(F)F (stereo not drawn),EC50,[6],> 195 µM (not active)
CCOC(=O)c1[nH]c(C)c(C(=O)N2CCC3(CC2)OCCO3)c1C,AC50,[7],22.4 µM (inconclusive)
O=C(CSc1ccccn1)N/N=C/c1cc([N+](=O)[O-])ccc1O,EC50,[1],1.01 µM (active)
same,EC50,[3],2.72 µM (active)
CC1CCN(CCOCCOc2ccc(Cl)cc2Br)CC1,EC50,[4],540 nM (active)
same,EC50,[5],13.8 µM (active)
COC(=O)c1ccc(CSc2cc(C)c3cc(C)cc(C)c3n2)o1,EC50,[1],34.2 µM (active)
same,EC50,[2],12.6 µM (active)
same,EC50,[3],> 150 µM (not active)
Cc1cccc(N2CCN(C(=O)c3ccc4nc(N5CCCCC5)sc4c3)CC2)c1C,EC50,[1],13.8 µM (active)
same,EC50,[2],14.6 µM (active)
same,EC50,[3],140 µM (active)
COc1ccc(S(=O)(=O)N2CCC(NC(=O)C(Cc3cccc(OC)c3OC)NC(C)=O)CC2)cc1 (stereo not drawn),EC50,[6],> 195 µM (not active)
Cc1cc(C)c2nc(O)c(CN(Cc3ccccc3)C(S)=NCCCN(C)C)cc2c1,EC50,[4],2190 nM (active)
same,EC50,[5],> 60 µM (not active)
CCOc1ccc(/C=N/Nc2cc(N3CCOCC3)nc(C)n2)c(O)c1,EC50,[1],> 150 µM (not active)
same,EC50,[2],> 150 µM (not active)
same,EC50,[3],> 150 µM (not active)
CNc1ccnc(-c2ccccc2OC)n1,AC50,[7],31.6 µM (inconclusive)
CCCCN(C)S(=O)(=O)c1ccc(C(=O)N(CCN(C)C)c2nc3ccc(C)cc3s2)cc1,EC50,[4],182 nM (active)
same,EC50,[5],> 60 µM (inconclusive)
Cc1ccc(CN2C(=O)c3ccccc3NC2c2cc(Br)ccc2O)cc1 (stereo not drawn),EC50,[1],5.08 µM (active)
same,EC50,[2],5 µM (active)
same,EC50,[3],8.52 µM (active)
CCCCCCCc1nn2c(O)cc(=O)nc2s1,EC50,[1],10.9 µM (active)
same,EC50,[2],> 150 µM (not active)
same,EC50,[3],> 150 µM (not active)
CCOc1cc(/C=N/NC(=O)CN(CCc2ccccc2)S(=O)(=O)c2ccc(NC(C)=O)cc2)ccc1O,EC50,[6],> 195 µM (not active)
CC(C)(C)NC(=O)CSc1nc2ccc(Nc3nc(N4CCOCC4)nc(N4CCOCC4)n3)cc2s1,EC50,[4],832 nM (active)
same,EC50,[5],> 30 µM (not active)
CO[C@H]1COC(=O)CCC[C@@H](C)[C@H](OC)COC(=O)[C@H]2CCCN2C(=O)C/C=C\[C@@H]1C,AC50,[7],5.01 µM (inconclusive)
COc1cccc(COC(=O)c2ccc3c(=O)n4c(nc3c2)CCC4)c1OC,EC50,[1],10.8 µM (active)
same,EC50,[2],> 150 µM (not active)
same,EC50,[3],34.1 µM (active)
COc1ccc(N(C)C(=O)c2oc(=O)c3ccccc3c2-c2ccccc2)c(OC)c1,EC50,[6],> 195 µM (not active)
C=CCn1c(C)cc(C(=O)CSc2nnc(NC(C)C)s2)c1C,EC50,[6],> 195 µM (not active)
Sc1nc(SCc2ccccc2)nc2ccccc12,EC50,[1],4.43 µM (active)
same,EC50,[3],64.9 µM (active)
Cc1cccc(NC(c2ccc(C)s2)c2ccc3ccc(C)nc3c2O)n1 (stereo not drawn),EC50,[1],2.83 µM (active)
same,EC50,[2],2.96 µM (active)
same,EC50,[3],9.05 µM (active)
OCCCCNCc1ccc(OCc2ccc(Cl)cc2)cc1,EC50,[4],2390 nM (active)
same,EC50,[5],10.6 µM (active)
Cc1c2c(n3c(nc4ccccc43)c1C#N)N(CCCN(C)C)CC2,EC50,[4],242 nM (active)
same,EC50,[5],> 60 µM (not active)
CCn1ncc(CN2CCCC(CNC(=O)c3ccc(F)cc3)C2)c1C (stereo not drawn),EC50,[4],106 nM (active)
same,EC50,[5],> 60 µM (not active)
C[C@H](N)Cc1c[nH]c2ccc(OCc3cccs3)cc12,AC50,[7],15.8 µM (inconclusive) and 12.6 µM (inconclusive)
O=C(c1cc(C(F)(F)F)cc(C(F)(F)F)c1)N1CCC[C@@]2(CCN(c3ccccc3)C2)C1,AC50,[7],3.16 µM (inconclusive)
CCC1COCCS(=O)(=O)N1Cc1ccccc1C (stereo not drawn),EC50,[6],> 195 µM (not active)
COc1ccc(-n2ncc3c(NCCCN4CCOCC4)ncnc32)cc1,EC50,[6],1.52 µM (active)
Cc1nc2cc([N+](=O)[O-])ccc2c(=O)n1-c1ccccc1[N+](=O)[O-],EC50,[4],1910 nM (active)
same,EC50,[5],19.1 µM (active)
